Test results taken from PubChem BioAssay (NCI).
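Growth conditions: 96-well plates. Treatment: test compound, 48 hours, 5 concentrations. Analysis: linear interpolation between bracketing concentrations; unreached endpoints set to highest concentration. Definition used: TGI = concentration required for complete inhibition of growth.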

Legend:
Test in all cases: NCI-60 cell line screen, 48 h
[1] = test system: CAKI-1 renal
[2] = test system: HCT-116 colon
[3] = test system: COLO 205 colon
[4] = test system: RXF 393 renal
[5] = test system: LOX IMVI melanoma
[6] = test system: EKVX NSCLC
[7] = test system: SF-295 CNS
[8] = test system: OVCAR-3 ovarian
[9] = test system: SR leukemia
[10] = test system: NCI-H226 lung
[11] = test system: SK-MEL-28 melanoma
[12] = test system: UO-31 renal
[13] = test system: 786-0 renal
[14] = test system: HCC-2998 colon
[15] = test system: T-47D breast
[16] = test system: ACHN renal
[17] = test system: SF-268 CNS
[18] = test system: MDA-MB-435
[19] = test system: SNB-75 CNS
[20] = test system: HT29 colon

| SMILES | TGI [1] [µM] | TGI [2] [µM] | TGI [3] [µM] | TGI [4] [µM] | TGI [5] [µM] | TGI [6] [µM] | TGI [7] [µM] | TGI [8] [µM] | TGI [9] [µM] | TGI [10] [µM] | TGI [11] [µM] | TGI [12] [µM] | TGI [13] [µM] | TGI [14] [µM] | TGI [15] [µM] | TGI [16] [µM] | TGI [17] [µM] | TGI [18] [µM] | TGI [19] [µM] | TGI [20] [µM] |
| --- | --- | --- | --- | --- | --- | --- | --- | --- | --- | --- | --- | --- | --- | --- | --- | --- | --- | --- | --- | --- |
| O=c1c2cc(I)ccc2nc(SCc2n[nH]c(=S)o2)n1Cc1ccccc1 | 22.4 | 29.4 | 22.8 | 10.9 | 29.1 | 40.8 | 40 | 31.1 | > 100 | 27.6 | 32.3 | 3.43 | 30.3 | 35.3 | 45.4 | 28.6 | 32.9 | 44.4 | 23.1 | 66.2 |
| O=c1oc2ccc(Cl)cc2cc1-c1cn2ccccc2n1 | 45.9 | 45.2 | > 100 | > 44.7 | > 100 | > 100 | 24.5 | > 100 | > 100 | > 94.8 | > 100 | 19.2 | 18 | > 100 | > 100 | 8.54 | 99.3 | > 100 | > 41.3 | > 50.6 |
| O=C1NC(=O)/C(=C/c2ccc(S(=O)(=O)N/N=C\C(O)C(O)C(O)C(O)CO)cc2)N1 (stereo not given) | > 100 | > 100 | > 100 | > 100 | > 100 | > 100 | > 100 | > 100 | > 100 | > 100 | > 100 | > 100 | > 100 | > 100 | > 100 | > 100 | > 100 | > 100 | > 100 | > 100 |
| CC(C)(C)c1cc(OCc2nnc3sc(=S)[nH]n23)c(Cl)cc1OCc1nnc2sc(=S)[nH]n12 | 80.5 | 50.6 | > 100 | 69.1 | 34.2 | 85.4 | > 100 | 63.6 | 50.8 | > 100 | 58.4 | 82.4 | 95 | 65.2 | 57.7 | 76.8 | > 100 | 55.1 | 92 | > 100 |
| COc1ccccc1N=N/C(=N\NC(=O)c1ccc(C)cc1)c1ccc(N(CCC#N)CCC#N)cc1C | > 100 | > 100 | 37.3 | > 100 | > 100 | > 100 | > 100 | 61.9 | > 100 | 28.5 | > 100 | > 100 | > 100 | > 100 | > 100 | > 100 | > 100 | > 100 | > 100 | > 100 |
| CC1Cc2cc(O)c(O)cc2-c2cc(O)c(O)cc2CC1C (stereo not given) | 48.3 | 34.5 | 32.1 | 56.4 | 23.1 | 96.2 | 20.8 | 29.3 | 33 | 67.8 | 43.6 | 85.3 | 39.9 | 43.1 | 63.7 | 87.1 | > 100 | 10.5 | > 100 | 63.9 |
| CN1C=Cc2nccc3cc4c(c1c23)OCO4 | 5.77 | 35.2 | > 42.8 | 7.61 | > 100 | 13.8 | 10.1 | > 72.4 | 10.9 | 43.5 | 39.2 | 34.9 | 24.8 | 30.4 | > 27.1 | 19.3 | 11.3 | 12.1 | 5.3 | 27.5 |
| CCN(CC)/[N+]([O-])=N/OCOC(C)=O | > 100 | > 100 | > 100 | > 100 | > 100 | > 100 | > 100 | > 100 | > 100 | > 100 | > 100 | > 100 | > 100 | > 100 | > 100 | > 100 | > 100 | > 100 | > 100 | > 100 |
| O=C(NCCN1CCCCC1)c1ccc(I)cc1 | > 100 | > 100 | > 100 | > 100 | > 100 | > 100 | > 100 | > 100 | > 100 | > 100 | > 100 | > 100 | > 100 | > 100 | > 100 | > 100 | > 100 | > 100 | > 100 | > 100 |
